Assay results taken from ChEMBL document CHEMBL4823244, “Synthesis of norisoboldine derivatives and bioactivity assay for inducing the generation of regulatory T cells” (Bioorg Med Chem Lett, 2021).
Active and inactive are the calls of the source. The calls are words filed in the database; no cut-off is given here.

How the values were obtained:
EL4 = test: Cytotoxicity against mouse EL4 cells assessed as effect on cell viability at 1 to 10 uM measured after 72 hrs by MTT assay; assay type: cell-based; settings: el4, 72 h, dose 1-10 µM
T-cell [1] = test: Induction of cell differentiation in anti-CD3/CD28 stimulated naive T-cells assessed as upregulation of CD4+ CD25+ cell frequency at 10 uM measured after 72 hrs by flow cytometry analysis; assay type: functional, cell-based
T-cell [2] = test: Induction of cell differentiation in anti-CD3/CD28 stimulated naive T-cells assessed as upregulation of Foxp3 expression at 10 uM measured after 72 hrs by Q-PCR analysis; assay type: functional, cell-based
T-cell [3] = test: Induction of cell differentiation in anti-CD3/CD28 stimulated naive T-cells assessed as number of Treg cells at 3 uM measured after 72 hrs by flow cytometry analysis (reference value: 24 %); assay type: functional
T-cell [4] = test: Induction of cell differentiation in anti-CD3/CD28 stimulated naive T-cells assessed as number of Treg cells at 10 uM measured after 72 hrs by flow cytometry analysis (reference value: 24 %); assay type: functional
T-cell [5] = test: Induction of cell differentiation in anti-CD3/CD28 stimulated naive T-cells assessed as number of Treg cells at 30 uM measured after 72 hrs by flow cytometry analysis (reference value: 24 %); assay type: functional
T-cell [6] = test: Induction of cell differentiation in anti-CD3/CD28 stimulated naive T-cells assessed as upregulation of Foxp3 mRNA expression at 3 to 30 uM measured after 72 hrs by Q-PCR analysis; assay type: functional, cell-based; settings: dose 3-30 µM
T-cell [7] = test: Induction of cell differentiation in anti-CD3/CD28 stimulated naive T-cells assessed as upregulation of IL-10 mRNA expression at 3 to 30 uM measured after 72 hrs by Q-PCR analysis; assay type: functional, cell-based; settings: dose 3-30 µM
Mus musculus [8] = test: Antiinflammatory activity in DSS-induced ulcerative colitis mouse model assessed as reduction in DAI score a 20 to 40 mg/kg, po administered for 10 consecutive days; assay type: functional, organism-based; settings: dose 20-40 mg/kg, time 10.0 day
Mus musculus [9] = test: Antiinflammatory activity in DSS-induced ulcerative colitis mouse model assessed as rescue of colon length shortening at 20 to 40 mg/kg, po administered for 10 consecutive days; assay type: functional, organism-based; settings: dose 20-40 mg/kg, time 10.0 day
Mus musculus [10] = test: Antiinflammatory activity in DSS-induced ulcerative colitis mouse model assessed as reduction in MPO activity at 20 to 40 mg/kg, po administered for 10 consecutive days; assay type: functional, organism-based; settings: dose 20-40 mg/kg, time 10.0 day
Mus musculus [11] = test: Antiinflammatory activity in DSS-induced ulcerative colitis mouse model assessed as protection against colon destruction at 20 to 40 mg/kg, po administered for 10 consecutive days by HE staining based histopathological analysis; assay type: functional, organism-based; settings: dose 20-40 mg/kg, time 10.0 day
Mus musculus [12] = test: Antiinflammatory activity in DSS-induced ulcerative colitis mouse model assessed as protection against inflammation of colons at 20 to 40 mg/kg, po administered for 10 consecutive days by HE staining based histopathological analysis; assay type: functional, organism-based; settings: dose 20-40 mg/kg, time 10.0 day
Mus musculus [13] = test: Induction of Treg cell differentiation in DSS- induced ulcerative colitis mouse model assessed as number of Treg cells in colonic lamina proprias at 20 mg/kg, po administered for 10 consecutive days by flow cytometry analysis (Rvb= 7.97%); assay type: functional; settings: time 10 day
Mus musculus [14] = test: Induction of Treg cell differentiation in DSS- induced ulcerative colitis mouse model assessed as number of Treg cells in colonic lamina proprias at 40 mg/kg, po administered for 10 consecutive days by flow cytometry analysis (Rvb= 7.97%); assay type: functional; settings: time 10 day
Mus musculus [15] = test: Induction of Treg cell differentiation in DSS- induced ulcerative colitis mouse model assessed as number of Treg cells in mesenteric lymph nodes at 20 mg/kg, po administered for 10 consecutive days by flow cytometry analysis (Rvb= 7.52%); assay type: functional; settings: time 10 day
Mus musculus [16] = test: Induction of Treg cell differentiation in DSS- induced ulcerative colitis mouse model assessed as number of Treg cells in mesenteric lymph nodes at 40 mg/kg, po administered for 10 consecutive days by flow cytometry analysis (Rvb= 7.52%); assay type: functional; settings: time 10 day
Mus musculus [17] = test: Induction of Treg cell differentiation in DSS- induced ulcerative colitis mouse model assessed as number of Treg cells in spleens at 20 mg/kg, po administered for 10 consecutive days by flow cytometry analysis (Rvb= 6.49%); assay type: functional; settings: time 10 day
Mus musculus [18] = test: Induction of Treg cell differentiation in DSS- induced ulcerative colitis mouse model assessed as number of Treg cells in spleens at 40 mg/kg, po administered for 10 consecutive days by flow cytometry analysis (Rvb= 6.49%); assay type: functional; settings: time 10 day
Mus musculus [19] = test: Induction of Treg cell differentiation in DSS- induced ulcerative colitis mouse model assessed as increase in Foxp3 mRNA level at 20 to 40 mg/kg, po administered for 10 consecutive days by Q-PCR analysis; assay type: functional, organism-based; settings: dose 20-40 mg/kg, time 10.0 day
Mus musculus [20] = test: Induction of Treg cell differentiation in DSS- induced ulcerative colitis mouse model assessed as increase in IL-10 mRNA level at 20 to 40 mg/kg, po administered for 10 consecutive days by Q-PCR analysis; assay type: functional, organism-based; settings: dose 20-40 mg/kg, time 10.0 day
T-cell [21] = test: Induction of cell differentiation in anti-CD3/CD28 stimulated naive T-cells assessed as upregulation of CD4+ CD25+ cell frequency at 0.2 mM measured after 72 hrs by flow cytometry analysis; assay type: functional, cell-based
T-cell [22] = test: Induction of cell differentiation in anti-CD3/CD28 stimulated naive T-cells assessed as upregulation of Foxp3 expression at 0.2 mM measured after 72 hrs by Q-PCR analysis; assay type: functional, cell-based
T-cell [23] = test: Induction of cell differentiation in anti-CD3/CD28 stimulated naive T-cells assessed as number of Treg cells at 0.2 mM measured after 72 hrs by flow cytometry analysis (reference value: 24 %); assay type: functional
T-cell [24] = test: Induction of cell differentiation in anti-CD3/CD28 stimulated naive T-cells assessed as upregulation of IL-10 mRNA expression at 0.2 mM measured after 72 hrs by Q-PCR analysis; assay type: functional, cell-based

In the case of `COc1ccc(C(=O)N2CCc3cc(OC)c(O)c4c3C2Cc2cc(O)c(OC)cc2-4)cc1` (stereo not given), the Activity (EL4) is reported as “Non-Toxic”.
In the case of `COc1cc2c(cc1O)CC1c3c(cc(OC)c(O)c3-2)CCN1C(=O)c1ccc(Br)cc1` (stereo not given), the Activity (EL4) is reported as “Non-Toxic”.
With `COc1cc2c(cc1O)CC1c3c(cc(OC)c(O)c3-2)CCN1C(=O)c1ccc(C)cc1` (stereo not given) the Activity (EL4) was “Non-Toxic”.
`COc1cc2c(cc1O)CC1c3c(cc(OC)c(O)c3-2)CCN1C(=O)c1cc(OC)c(OC)c(OC)c1` (stereo not given) was tested, and the Activity (EL4) was “Non-Toxic”.
`COc1cc2c(cc1O)CC1c3c(cc(OC)c(O)c3-2)CCN1C(=O)c1ccccc1` (stereo not given) was tested, and the Activity (EL4) was “Non-Toxic”.
`COc1cc2c(cc1O)C[C@@H]1NCCc3cc(OC)c(O)c-2c31` was tested, and the Activity (EL4) was “Non-Toxic”, the Activity (T-cell [1]) was “Active” and the Activity (T-cell [2]) was “Active”. For the same compound, the Activity (T-cell [3]) was 24.4%, the Activity (T-cell [4]) was 31.8% and the Activity (T-cell [5]) was 44.2%. For the same compound, the Activity (T-cell [6]) was “Active”, the Activity (T-cell [7]) was “Active” and the Activity (Mus musculus [8]) was “Active”. For the same compound, the Activity (Mus musculus [9]) was “Active”, the Activity (Mus musculus [10]) was “Active” and the Activity (Mus musculus [11]) was “Active”. The Activity (Mus musculus [12]) was “Active”, the Activity (Mus musculus [13]) was 12.25% and the Activity (Mus musculus [14]) was 15.87%. It also gave an Activity (Mus musculus [15]) of 9.8%, an Activity (Mus musculus [16]) of 14.89% and an Activity (Mus musculus [17]) of 6.58%. The Activity (Mus musculus [18]) was 7.41%, the Activity (Mus musculus [19]) was “Active” and the Activity (Mus musculus [20]) was “Active”.
In the case of `CCCC(=O)[O-].[Na+]` [SODIUM BUTYRATE], the Activity (EL4) is reported as “Non-Toxic”, the Activity (T-cell [21]) is reported as “Active” and the Activity (T-cell [22]) is reported as “Active”. The Activity (T-cell [23]) was 32.4% and the Activity (T-cell [24]) was “Active”.
With `COc1cccc(CN2CCc3cc(OC)c(O)c4c3C2Cc2cc(O)c(OC)cc2-4)c1` (stereo not given) the Activity (EL4) was “Non-Toxic”.
For `COc1cc2c(cc1O)CC1c3c(cc(OC)c(O)c3-2)CCN1C(=O)c1ccc(F)cc1` (stereo not given), the Activity (EL4) was “Non-Toxic”.
With `COc1cc2c(cc1O)CC1c3c(cc(OC)c(O)c3-2)CCN1Cc1ccc(C)cc1` (stereo not given) the Activity (EL4) was “Non-Toxic”.
For `COc1cc(OC)cc(C(=O)N2CCc3cc(OC)c(O)c4c3C2Cc2cc(O)c(OC)cc2-4)c1` (stereo not given), the Activity (EL4) was “Non-Toxic”.
